Publication PMC8213057, “Targeting ALK2: An Open Science Approach to Developing Therapeutics for the Treatment of Diffuse Intrinsic Pontine Glioma” (Journal of Medicinal Chemistry, 2020)
Several values for one entry are separate records, joined by “and”; a condition that tells them apart may be missing. Identical values can stand only once.

Tests used:
SNRK = target: T1, SNRK (Homo sapiens, UniProt Q9NRH2); conditions: 1 μM; Run 1, Run 2
T1 sequence (Q9NRH2 1-765): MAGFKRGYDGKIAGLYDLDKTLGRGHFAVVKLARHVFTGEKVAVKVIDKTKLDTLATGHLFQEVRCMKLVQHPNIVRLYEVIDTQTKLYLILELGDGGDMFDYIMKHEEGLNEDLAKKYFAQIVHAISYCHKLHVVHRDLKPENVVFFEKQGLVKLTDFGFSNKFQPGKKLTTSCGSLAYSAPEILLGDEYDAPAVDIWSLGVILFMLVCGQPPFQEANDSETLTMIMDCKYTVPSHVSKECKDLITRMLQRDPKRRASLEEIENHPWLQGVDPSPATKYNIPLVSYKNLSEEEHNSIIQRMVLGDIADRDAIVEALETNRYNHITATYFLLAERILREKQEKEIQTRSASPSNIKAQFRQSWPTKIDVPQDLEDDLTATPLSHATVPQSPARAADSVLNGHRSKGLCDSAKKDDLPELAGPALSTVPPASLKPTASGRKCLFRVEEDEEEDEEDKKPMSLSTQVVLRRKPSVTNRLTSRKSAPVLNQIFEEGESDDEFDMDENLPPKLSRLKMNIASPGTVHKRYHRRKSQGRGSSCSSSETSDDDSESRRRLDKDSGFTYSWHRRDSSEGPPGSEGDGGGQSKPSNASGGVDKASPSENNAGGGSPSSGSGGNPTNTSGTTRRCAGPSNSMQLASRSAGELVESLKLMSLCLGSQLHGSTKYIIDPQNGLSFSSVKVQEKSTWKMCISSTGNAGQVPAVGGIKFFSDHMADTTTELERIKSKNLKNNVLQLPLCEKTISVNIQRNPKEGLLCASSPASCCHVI

PDGFRb = PDGFRb (Homo sapiens, UniProt P09619); conditions: 1 μM; Run 1, Run 2
PDGFRb, sequence (P09619 33-1106): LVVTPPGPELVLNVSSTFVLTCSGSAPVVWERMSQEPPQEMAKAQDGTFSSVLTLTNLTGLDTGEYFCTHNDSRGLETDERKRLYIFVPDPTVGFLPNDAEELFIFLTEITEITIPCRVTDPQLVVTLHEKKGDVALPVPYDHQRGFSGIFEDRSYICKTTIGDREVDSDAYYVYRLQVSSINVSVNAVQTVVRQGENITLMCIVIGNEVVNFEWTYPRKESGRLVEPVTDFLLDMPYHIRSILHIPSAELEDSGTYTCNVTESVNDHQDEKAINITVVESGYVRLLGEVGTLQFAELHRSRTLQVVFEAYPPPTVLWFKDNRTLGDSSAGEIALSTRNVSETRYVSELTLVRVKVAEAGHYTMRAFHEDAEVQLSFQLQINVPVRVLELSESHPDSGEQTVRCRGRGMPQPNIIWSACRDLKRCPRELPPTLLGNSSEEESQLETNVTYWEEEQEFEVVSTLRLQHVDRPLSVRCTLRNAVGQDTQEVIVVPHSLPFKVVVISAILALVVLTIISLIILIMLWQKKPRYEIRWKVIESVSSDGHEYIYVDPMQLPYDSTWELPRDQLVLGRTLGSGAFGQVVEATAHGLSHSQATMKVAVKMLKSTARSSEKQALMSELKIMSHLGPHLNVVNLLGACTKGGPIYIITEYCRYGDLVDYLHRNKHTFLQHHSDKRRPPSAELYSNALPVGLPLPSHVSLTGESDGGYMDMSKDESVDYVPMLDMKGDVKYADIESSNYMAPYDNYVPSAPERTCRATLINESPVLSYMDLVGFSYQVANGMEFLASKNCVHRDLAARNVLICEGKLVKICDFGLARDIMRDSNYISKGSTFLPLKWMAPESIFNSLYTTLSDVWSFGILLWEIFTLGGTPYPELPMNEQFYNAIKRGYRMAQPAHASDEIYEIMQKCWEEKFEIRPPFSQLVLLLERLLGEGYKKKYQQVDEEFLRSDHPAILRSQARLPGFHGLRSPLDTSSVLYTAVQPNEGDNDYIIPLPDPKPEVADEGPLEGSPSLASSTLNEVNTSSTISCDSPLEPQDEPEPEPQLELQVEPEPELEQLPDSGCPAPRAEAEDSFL

FER = FER (Homo sapiens, UniProt P16591); conditions: 1 μM; Run 1, Run 2
c-MET = c-MET (Homo sapiens, UniProt P08581); assay: biochemical; conditions: read-out: % enzyme activity, 1 μM; Run 1, Run 2
FGFR4 = FGFR4 (Homo sapiens, UniProt P22455); assay: biochemical; conditions: read-out: % enzyme activity, 1 μM; Run 1, Run 2
CDK3/cyclin E = CDK3/cyclin E (Homo sapiens, UniProt Q00526); conditions: 1 μM; Run 1, Run 2
WNK2 [1] = target: T2, WNK2 (Homo sapiens, UniProt Q9Y3S1); conditions: 1 μM; Run 1, Run 2
T2 sequence (Q9Y3S1 whole entry, species assumed): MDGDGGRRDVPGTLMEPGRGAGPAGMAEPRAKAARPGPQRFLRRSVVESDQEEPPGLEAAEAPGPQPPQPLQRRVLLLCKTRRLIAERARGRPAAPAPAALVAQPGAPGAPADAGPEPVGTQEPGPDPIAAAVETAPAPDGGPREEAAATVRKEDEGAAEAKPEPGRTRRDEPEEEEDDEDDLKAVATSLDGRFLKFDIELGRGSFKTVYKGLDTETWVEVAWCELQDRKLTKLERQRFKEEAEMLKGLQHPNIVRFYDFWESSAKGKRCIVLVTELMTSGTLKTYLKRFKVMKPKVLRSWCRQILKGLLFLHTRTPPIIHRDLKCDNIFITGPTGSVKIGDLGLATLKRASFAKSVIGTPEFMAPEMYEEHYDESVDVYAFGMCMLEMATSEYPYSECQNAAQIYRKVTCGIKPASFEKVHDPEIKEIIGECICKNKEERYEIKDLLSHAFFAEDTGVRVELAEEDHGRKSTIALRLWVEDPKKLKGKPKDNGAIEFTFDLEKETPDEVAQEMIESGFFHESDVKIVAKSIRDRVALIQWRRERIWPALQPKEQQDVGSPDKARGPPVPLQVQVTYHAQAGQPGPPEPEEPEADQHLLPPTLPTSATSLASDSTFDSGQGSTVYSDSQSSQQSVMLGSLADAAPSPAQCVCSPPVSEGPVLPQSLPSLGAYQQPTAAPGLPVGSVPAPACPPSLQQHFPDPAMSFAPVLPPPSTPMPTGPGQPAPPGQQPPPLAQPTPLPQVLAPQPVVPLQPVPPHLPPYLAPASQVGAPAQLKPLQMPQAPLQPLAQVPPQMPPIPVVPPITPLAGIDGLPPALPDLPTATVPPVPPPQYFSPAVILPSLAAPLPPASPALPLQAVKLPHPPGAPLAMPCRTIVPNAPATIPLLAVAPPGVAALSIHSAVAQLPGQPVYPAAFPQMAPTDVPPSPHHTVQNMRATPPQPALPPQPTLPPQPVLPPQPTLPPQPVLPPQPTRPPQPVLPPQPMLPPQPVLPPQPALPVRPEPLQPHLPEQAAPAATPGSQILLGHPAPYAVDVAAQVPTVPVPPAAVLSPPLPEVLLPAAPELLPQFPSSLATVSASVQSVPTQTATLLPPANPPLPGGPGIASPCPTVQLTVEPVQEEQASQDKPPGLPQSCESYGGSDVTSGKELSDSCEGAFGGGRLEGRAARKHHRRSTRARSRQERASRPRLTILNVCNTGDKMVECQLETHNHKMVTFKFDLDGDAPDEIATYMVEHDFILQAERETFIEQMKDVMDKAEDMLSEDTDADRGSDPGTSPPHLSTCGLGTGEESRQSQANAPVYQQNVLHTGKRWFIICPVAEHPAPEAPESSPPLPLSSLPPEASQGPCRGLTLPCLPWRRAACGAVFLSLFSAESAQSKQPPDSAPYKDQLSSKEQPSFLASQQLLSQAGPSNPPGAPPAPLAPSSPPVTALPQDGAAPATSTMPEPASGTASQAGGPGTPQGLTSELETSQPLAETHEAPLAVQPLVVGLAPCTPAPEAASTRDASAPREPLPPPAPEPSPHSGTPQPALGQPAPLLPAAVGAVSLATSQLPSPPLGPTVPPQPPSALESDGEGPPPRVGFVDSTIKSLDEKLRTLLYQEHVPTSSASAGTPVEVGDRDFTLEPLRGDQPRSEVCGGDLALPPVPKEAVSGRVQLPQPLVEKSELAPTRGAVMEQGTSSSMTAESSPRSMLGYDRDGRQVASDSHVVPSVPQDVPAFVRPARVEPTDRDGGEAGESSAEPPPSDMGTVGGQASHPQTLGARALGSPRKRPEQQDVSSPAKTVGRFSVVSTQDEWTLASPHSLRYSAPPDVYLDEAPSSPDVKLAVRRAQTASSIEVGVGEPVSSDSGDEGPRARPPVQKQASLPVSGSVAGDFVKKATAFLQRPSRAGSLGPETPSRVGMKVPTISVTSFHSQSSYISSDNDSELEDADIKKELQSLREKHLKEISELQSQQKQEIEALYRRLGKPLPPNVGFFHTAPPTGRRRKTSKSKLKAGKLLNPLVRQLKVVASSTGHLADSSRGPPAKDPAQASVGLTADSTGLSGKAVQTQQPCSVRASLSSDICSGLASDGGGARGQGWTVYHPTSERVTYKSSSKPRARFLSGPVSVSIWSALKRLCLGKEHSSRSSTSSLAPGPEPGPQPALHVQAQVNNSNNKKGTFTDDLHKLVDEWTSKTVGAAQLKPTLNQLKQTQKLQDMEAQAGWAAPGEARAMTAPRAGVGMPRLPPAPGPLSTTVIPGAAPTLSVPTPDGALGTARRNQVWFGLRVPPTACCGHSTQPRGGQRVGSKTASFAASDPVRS

CDK5/P25 = CDK5/P25 (Homo sapiens, UniProt Q00535); conditions: 1 μM; Run 1, Run 2
JNK2 = JNK2 (Homo sapiens, UniProt P45984); assay: biochemical; conditions: read-out: % enzyme activity, 1 μM; Run 1, Run 2
JNK2, sequence (P45984 whole entry): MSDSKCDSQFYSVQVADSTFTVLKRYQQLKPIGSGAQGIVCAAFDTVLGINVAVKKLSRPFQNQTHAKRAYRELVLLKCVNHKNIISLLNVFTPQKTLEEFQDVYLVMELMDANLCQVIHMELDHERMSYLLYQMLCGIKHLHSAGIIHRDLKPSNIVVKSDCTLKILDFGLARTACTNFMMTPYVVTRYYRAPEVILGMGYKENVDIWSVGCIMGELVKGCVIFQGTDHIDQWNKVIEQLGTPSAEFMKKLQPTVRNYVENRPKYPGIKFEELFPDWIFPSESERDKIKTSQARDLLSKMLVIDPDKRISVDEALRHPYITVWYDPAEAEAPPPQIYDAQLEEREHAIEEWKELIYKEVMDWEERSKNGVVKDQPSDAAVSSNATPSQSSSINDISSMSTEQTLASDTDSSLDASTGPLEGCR

NEK1 = target: T3, NEK1 (Homo sapiens, UniProt Q96PY6); conditions: 1 μM; Run 1, Run 2
T3 sequence (Q96PY6 1-1258): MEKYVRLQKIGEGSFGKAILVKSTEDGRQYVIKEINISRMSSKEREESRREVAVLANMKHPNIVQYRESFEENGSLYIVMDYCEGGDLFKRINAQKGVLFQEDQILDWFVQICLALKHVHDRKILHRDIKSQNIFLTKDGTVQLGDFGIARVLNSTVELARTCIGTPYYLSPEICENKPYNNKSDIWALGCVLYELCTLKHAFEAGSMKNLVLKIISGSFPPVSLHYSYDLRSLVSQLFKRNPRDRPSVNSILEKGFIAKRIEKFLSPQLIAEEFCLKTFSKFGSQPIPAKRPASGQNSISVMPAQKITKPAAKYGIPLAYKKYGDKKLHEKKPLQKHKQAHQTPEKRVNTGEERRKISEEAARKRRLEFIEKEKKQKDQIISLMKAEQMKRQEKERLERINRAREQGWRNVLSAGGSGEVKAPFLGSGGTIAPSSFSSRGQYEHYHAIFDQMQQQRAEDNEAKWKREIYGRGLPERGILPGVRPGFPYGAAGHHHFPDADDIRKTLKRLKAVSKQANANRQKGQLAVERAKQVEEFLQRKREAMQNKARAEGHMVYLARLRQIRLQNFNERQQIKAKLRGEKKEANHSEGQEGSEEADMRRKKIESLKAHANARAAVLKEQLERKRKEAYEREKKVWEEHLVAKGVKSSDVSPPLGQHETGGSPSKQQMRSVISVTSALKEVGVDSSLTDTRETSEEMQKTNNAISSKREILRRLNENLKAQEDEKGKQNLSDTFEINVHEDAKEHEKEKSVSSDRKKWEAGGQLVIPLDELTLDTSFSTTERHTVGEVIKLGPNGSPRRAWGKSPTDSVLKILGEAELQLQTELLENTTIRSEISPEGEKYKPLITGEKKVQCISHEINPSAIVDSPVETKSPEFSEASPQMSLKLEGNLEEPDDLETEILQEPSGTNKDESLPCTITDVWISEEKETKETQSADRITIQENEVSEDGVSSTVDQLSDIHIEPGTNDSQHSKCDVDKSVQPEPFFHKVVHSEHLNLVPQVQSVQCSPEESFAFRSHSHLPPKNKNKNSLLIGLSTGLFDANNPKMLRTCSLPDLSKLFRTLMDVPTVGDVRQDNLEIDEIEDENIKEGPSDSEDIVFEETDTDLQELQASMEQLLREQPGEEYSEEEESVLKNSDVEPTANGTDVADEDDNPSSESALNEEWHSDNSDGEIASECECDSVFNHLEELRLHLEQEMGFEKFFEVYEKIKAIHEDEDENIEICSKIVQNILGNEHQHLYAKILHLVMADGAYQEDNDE

WNK2 [2] = target: T2, WNK2; assay: biochemical; conditions: read-out: % enzyme activity, 1 μM; Run 1, Run 2
p70S6K/RPS6KB1 = p70S6K/RPS6KB1 (Homo sapiens, UniProt P23443); conditions: 1 μM; Run 1, Run 2
RON/MST1R = RON/MST1R (Homo sapiens, UniProt Q04912); conditions: 1 μM; Run 1, Run 2
HCK = HCK (Homo sapiens, UniProt P08631); assay: biochemical; conditions: read-out: % enzyme activity, 1 μM; Run 1, Run 2
WNK3 = WNK3 (Homo sapiens, UniProt Q9BYP7); assay: biochemical; conditions: read-out: % enzyme activity, 1 μM; Run 1, Run 2
HIPK2 = HIPK2 (Homo sapiens, UniProt Q9H2X6); conditions: 1 μM; Run 1, Run 2
HIPK2, sequence (Q9H2X6 whole entry): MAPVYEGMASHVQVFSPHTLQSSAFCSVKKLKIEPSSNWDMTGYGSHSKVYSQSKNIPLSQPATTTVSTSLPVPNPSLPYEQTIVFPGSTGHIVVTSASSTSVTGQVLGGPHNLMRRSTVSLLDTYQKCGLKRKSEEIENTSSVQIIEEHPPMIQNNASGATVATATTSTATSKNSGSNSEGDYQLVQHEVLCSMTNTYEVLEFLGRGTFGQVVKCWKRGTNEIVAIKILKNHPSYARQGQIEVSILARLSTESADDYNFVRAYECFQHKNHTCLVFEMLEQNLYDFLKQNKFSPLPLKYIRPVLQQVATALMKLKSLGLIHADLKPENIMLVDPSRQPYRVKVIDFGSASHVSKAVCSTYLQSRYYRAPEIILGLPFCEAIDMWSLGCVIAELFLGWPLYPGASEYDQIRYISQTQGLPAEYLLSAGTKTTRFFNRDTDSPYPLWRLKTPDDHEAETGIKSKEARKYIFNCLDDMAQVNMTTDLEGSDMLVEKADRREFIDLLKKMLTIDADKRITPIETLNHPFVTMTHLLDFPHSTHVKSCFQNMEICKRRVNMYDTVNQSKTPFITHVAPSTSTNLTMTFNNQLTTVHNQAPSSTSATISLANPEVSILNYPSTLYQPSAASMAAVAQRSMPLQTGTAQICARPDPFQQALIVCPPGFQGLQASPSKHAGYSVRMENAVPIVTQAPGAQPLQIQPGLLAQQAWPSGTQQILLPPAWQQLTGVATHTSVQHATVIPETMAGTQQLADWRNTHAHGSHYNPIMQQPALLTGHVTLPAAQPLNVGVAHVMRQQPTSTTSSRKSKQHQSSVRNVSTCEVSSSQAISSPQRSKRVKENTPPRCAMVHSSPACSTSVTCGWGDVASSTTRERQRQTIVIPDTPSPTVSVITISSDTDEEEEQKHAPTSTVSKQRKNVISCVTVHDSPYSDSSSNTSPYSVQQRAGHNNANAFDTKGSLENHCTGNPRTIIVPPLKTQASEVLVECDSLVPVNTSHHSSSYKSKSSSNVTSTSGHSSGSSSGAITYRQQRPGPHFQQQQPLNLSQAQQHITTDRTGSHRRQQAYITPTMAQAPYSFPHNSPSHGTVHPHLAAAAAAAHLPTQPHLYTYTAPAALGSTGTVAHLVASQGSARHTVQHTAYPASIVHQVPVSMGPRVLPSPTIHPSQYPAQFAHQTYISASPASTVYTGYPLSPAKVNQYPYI

SMILES	% enzyme activity (SNRK)	% enzyme activity (PDGFRb)	% enzyme activity (FER)	remaining activity at 1 µM (c-MET)	remaining activity at 1 µM (FGFR4)	% enzyme activity (CDK3/cyclin E)	% enzyme activity (WNK2 [1])	% enzyme activity (CDK5/P25)	remaining activity at 1 µM (JNK2)	% enzyme activity (NEK1)	remaining activity at 1 µM (WNK2 [2])	% enzyme activity at 1 μM (TNIK)	% enzyme activity at 1 μM (DDR1)	% enzyme activity (p70S6K/RPS6KB1)	% enzyme activity (RON/MST1R)	remaining activity at 1 µM (HCK)	remaining activity at 1 µM (WNK3)	% enzyme activity (HIPK2)
COc1cc(-c2cncc(-c3ccc(N4CCN(C)CC4)cc3)c2C)cc(F)c1C(N)=O [Compound 26a, 2-Fluoro-6-methoxy-4-(4-methyl-5-(4-(4-methylpiperazin-1-yl)phenyl)pyridin-3-yl)benzamide]	104.94%	76.01%	86.16%	100%	98.2%	81.63%	95.09%	91.77%	93.4%	84.54%	95.5%	-0.77% and -2.62%	32.1% and 31.2%	96.69%	97.00%	93.6%	89.6%	97.88%
COc1cc(-c2cncc(-c3ccc(N4C[C@@H](C)N(C)[C@@H](C)C4)cc3)c2C)cc(F)c1C(N)=O [Compound 26c, 2-Fluoro-6-methoxy-4-(4-methyl-5-(4-((3R,5S)-3,4,5-trimethylpiperazin-1-yl)phenyl)pyridin-3-yl)benzamide]	97.75%	89.56%	84.91%	107%	99.6%	78.38%	93.64%	94.09%	94.7%	84.46%	96.9%	4.85% and 3.92%	57.2% and 55.5%	99.76%	104.29%	91.8%	93.8%	101.85%
